{"source": "patent US20040122062A1", "about": "“Use of growth hormone secretagogues for treatment of physical performance decline” (Pfizer Inc, priority 2000, published 2004)", "key": {"[1]": {"conditions": "adult female rats; cited from earlier work"}, "[2]": {"assay": "6-Minute Walk Test in a clinical study", "assay_type": "in vivo, human", "conditions": "all dose groups, week 6 and week 12", "experimental": "One physical performance endpoint in a clinical study was to determine whether the test compound, 2-amino-N-[2-(3a-(R)-benzyl-2-methyl-3-oxo-2,3,3a,4,6,7-hexahydro-pyrazolo[4,3-c]pyridin-5-yl)-1-(R)-benzyloxymethyl-2-oxo-ethyl]-isobutyramide, L-tartrate, increased the six-minute walk distance in subjects with mild-to-moderate congestive heart failure. There were four dose groups, 3 mg po tid; 6 mg po tid; 10 mg po q am, and placebo.\nThe six-minute walk study was performed at baseline, week 6, and week 12. The purpose of this test was to determine how many feet an individual can walk within six-minutes."}, "[3]": {"conditions": "canines during remobilization; cited from earlier work"}, "[4]": {"conditions": "obese young males; cited from earlier work"}}, "note": "Where a SMILES comes first, the peptide text is derived from it. [ ]: non-standard residue; d: D form. d2Nal = N[C@H](Cc1ccc2ccccc2c1)C(=O)O; Aib = CC(C)(N)C(=O)O", "data": [{"compound": "CC(C)(N)C(=O)N[C@@H](Cc1c[nH]cn1)C(=O)N[C@H](Cc1ccc2ccccc2c1)C(=O)N[C@H](Cc1ccccc1)C(=O)N[C@@H](CCCCN)C(N)=O", "note": "[ipamorelin] (H-[Aib]H[d2Nal][dF]K-NH2)", "values": [{"measurement": "bone mass", "setting": "[1]", "value": "have the capacity to increase bone mass"}]}, {"compound": "GHRP-6", "values": [{"measurement": "bone mass", "setting": "[1]", "value": "have the capacity to increase bone mass"}]}, {"compound": "CN1N=C2CCN(C(=O)[C@@H](COCc3ccccc3)NC(=O)C(C)(C)N)C[C@@]2(Cc2ccccc2)C1=O.O=C(O)C(O)C(O)C(=O)O", "note": "[2-amino-N-[2-(3a-(R)-benzyl-2-methyl-3-oxo-2,3,3a,4,6,7-hexahydro-pyrazolo[4,3-c]pyridin-5-yl)-1-(R)-benzyloxymethyl-2-oxo-ethyl]-isobutyramide, L-tartrate]", "values": [{"measurement": "six-minute walk distance, change from baseline", "setting": "[2]", "value": "increased in all dose groups at both 6 and 12 weeks"}]}, {"compound": "CC(C)(N)C(=O)N[C@H](COCc1ccccc1)C(=O)N1CCC2(CC1)CN(S(C)(=O)=O)c1ccccc12", "note": "[MK-0677]", "values": [{"measurement": "levels of serum insulin-like growth factor-I", "setting": "[3]", "value": "elevated"}, {"measurement": "size and strength of the quadriceps muscle", "setting": "[3]", "value": "increased"}, {"measurement": "markers of bone formation and bone resorption", "setting": "[4]", "value": "increases"}]}]}
